In US20130274216A1 (priority 2012, published 2013):

Columns and labels:
[1] = tested on: Fusarium conidia infected murine cornea; experiment: In vivo murine fungal keratitis model, neutrophil infiltration of the infected cornea; set-up: species or system C57BL/6 mice; details: for neutrophil infiltration (neutrophils per 5 μm corneal section): 24 hours after infection, infected PBS or vehicle groups >200 neutrophils/section
Aspergillus flavus = type: in vivo, murine

Compound	neutrophil infiltration (neutrophils per 5 μm corneal section) ([1]; 0.1% w/v test group) [neutrophils/section]	neutrophil infiltration (neutrophils per 5 μm corneal section) ([1]; 1% w/v test group) [neutrophils/section]	neutrophil infiltration, effect in words ([1]; test groups vs infected PBS/vehicle groups, 24 hours, FIG. 2)	reduction in CFUs/eye (Aspergillus flavus; 72 hours after infection with Aspergillus, dosed qid for 48 hours, control approximately 15000 CFUs/eye, FIG. 3B) [%]	Aspergillus infection evaluated by RFP expression (Aspergillus flavus; fluorescence micrographs of murine corneas 72 hours after infection, FIG. 3A)
COc1ccc(Nc2nc(-c3cccs3)nc3cn[nH]c23)cc1OC [Compound 1]	< 100	< 100	dose-dependent reduction		
C[C@@H]1C/C=C/C=C/C=C/C=C/[C@H](O[C@@H]2O[C@H](C)[C@@H](O)[C@H](N)[C@@H]2O)C[C@@H]2O[C@](O)(C[C@@H](O)C[C@H]3O[C@@H]3/C=C/C(=O)O1)C[C@H](O)[C@H]2C(=O)O [natamycin]				~50	suppressed
